# Results published in ChEMBL document CHEMBL4619803, “Stepwise Design of γ-Secretase Modulators with an Advanced Profile by Judicious Coordinated Structural Replacements and an Unconventional Phenyl Ring Bioisostere” (J Med Chem, 2020).
# Several values for one entry are separate records, joined by “and”; a condition that tells them apart may be missing. Identical values can stand only once.
# Assays:
# Gamma-secretase = assay: (§1) Modulation of gamma secretase in human H4 cells over expressing human APP695 harboring K595N/M596L Swedish double mutant assessed as reduction in Abeta42 production after 24 hrs by Alphalisa assay; type: cell-based
# [1] = Solubility of compound by lyophilisation solubility assay; type: physicochemical
# [2] = Octanol/water distribution co-efficient, log D of the compound at pH 7.4; type: physicochemical
# [3] = target: Phosphatidylinositol 4-kinase beta (Homo sapiens, UniProt Q9UBF8); assay: Binding affinity to PIK4CB (unknown origin); type: ADME
# Chain of Phosphatidylinositol 4-kinase beta (Q9UBF8 whole entry): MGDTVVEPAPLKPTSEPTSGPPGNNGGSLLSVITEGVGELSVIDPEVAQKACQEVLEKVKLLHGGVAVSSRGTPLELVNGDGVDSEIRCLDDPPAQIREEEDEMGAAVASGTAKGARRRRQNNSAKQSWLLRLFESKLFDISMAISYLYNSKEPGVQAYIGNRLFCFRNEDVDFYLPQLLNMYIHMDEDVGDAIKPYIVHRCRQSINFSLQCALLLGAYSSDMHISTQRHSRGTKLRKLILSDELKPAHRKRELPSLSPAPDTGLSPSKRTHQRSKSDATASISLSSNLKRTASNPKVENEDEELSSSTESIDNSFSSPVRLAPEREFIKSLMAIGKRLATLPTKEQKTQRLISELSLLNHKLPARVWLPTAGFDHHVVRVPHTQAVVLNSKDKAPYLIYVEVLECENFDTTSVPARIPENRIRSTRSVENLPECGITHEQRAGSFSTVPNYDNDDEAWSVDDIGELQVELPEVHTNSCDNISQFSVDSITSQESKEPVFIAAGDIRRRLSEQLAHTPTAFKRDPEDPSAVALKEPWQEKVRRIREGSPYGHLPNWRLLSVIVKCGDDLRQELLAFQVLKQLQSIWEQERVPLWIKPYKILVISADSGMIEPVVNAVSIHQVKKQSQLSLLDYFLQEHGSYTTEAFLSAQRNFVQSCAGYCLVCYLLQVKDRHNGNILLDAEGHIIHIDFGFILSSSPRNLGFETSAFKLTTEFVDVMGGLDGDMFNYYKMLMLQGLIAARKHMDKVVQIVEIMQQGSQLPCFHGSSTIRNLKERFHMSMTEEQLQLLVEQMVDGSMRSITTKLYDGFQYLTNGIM
# [4] = Fraction unbound in human plasma; type: ADME, cell-free
# [5] = Clearance in human hepatocytes assessed per million cells; type: ADME, cell-based, Hepatocyte; conditions: read-out: CLH
# [6] = Fraction unbound in mouse plasma; type: ADME, cell-free
# [7] = (§2) Modulation of mouse gamma secretase assessed as reduction in Abeta42 production
# [8] = Clearance in mouse hepatocytes assessed per million cells; type: ADME, cell-based, Hepatocyte; conditions: read-out: CLH
# [9] = Fraction unbound in rat plasma; type: ADME, cell-free
# [10] = Thermodynamic solubility of the compound; type: physicochemical
# [11] = target: Gamma-secretase (Homo sapiens) (UniProt Q96BI3+Q9NZ42+Q8WW43+P49768+Q92542+P49810); assay: as §1; type: cell-based
# Melanocyte = assay: Phototoxicity in human Melanocytes in presence of UVA at 320 to 400 nm; type: cell-based; conditions: light or radiation study
# [12] = Solubility of the compound in fasted state simulated intestinal fluid; type: physicochemical; conditions: simulated gi fluid
# Keratinocyte = assay: Phototoxicity in human Keratinocytes in presence of UVA at 320 to 400 nm; type: cell-based; conditions: light or radiation study
# [13] = Cytotoxicity against human embryonic stem cells assessed as reduction in cell viability; type: cell-based
# [14] = Solubility in fed state simulated intestinal fluids; type: physicochemical; conditions: simulated gi fluid
# [15] = target: Voltage-gated inwardly rectifying potassium channel KCNH2 (Homo sapiens, UniProt Q12809); assay: (§3) Inhibition of human ERG
# Chain of Voltage-gated inwardly rectifying potassium channel KCNH2 (Q12809 whole entry): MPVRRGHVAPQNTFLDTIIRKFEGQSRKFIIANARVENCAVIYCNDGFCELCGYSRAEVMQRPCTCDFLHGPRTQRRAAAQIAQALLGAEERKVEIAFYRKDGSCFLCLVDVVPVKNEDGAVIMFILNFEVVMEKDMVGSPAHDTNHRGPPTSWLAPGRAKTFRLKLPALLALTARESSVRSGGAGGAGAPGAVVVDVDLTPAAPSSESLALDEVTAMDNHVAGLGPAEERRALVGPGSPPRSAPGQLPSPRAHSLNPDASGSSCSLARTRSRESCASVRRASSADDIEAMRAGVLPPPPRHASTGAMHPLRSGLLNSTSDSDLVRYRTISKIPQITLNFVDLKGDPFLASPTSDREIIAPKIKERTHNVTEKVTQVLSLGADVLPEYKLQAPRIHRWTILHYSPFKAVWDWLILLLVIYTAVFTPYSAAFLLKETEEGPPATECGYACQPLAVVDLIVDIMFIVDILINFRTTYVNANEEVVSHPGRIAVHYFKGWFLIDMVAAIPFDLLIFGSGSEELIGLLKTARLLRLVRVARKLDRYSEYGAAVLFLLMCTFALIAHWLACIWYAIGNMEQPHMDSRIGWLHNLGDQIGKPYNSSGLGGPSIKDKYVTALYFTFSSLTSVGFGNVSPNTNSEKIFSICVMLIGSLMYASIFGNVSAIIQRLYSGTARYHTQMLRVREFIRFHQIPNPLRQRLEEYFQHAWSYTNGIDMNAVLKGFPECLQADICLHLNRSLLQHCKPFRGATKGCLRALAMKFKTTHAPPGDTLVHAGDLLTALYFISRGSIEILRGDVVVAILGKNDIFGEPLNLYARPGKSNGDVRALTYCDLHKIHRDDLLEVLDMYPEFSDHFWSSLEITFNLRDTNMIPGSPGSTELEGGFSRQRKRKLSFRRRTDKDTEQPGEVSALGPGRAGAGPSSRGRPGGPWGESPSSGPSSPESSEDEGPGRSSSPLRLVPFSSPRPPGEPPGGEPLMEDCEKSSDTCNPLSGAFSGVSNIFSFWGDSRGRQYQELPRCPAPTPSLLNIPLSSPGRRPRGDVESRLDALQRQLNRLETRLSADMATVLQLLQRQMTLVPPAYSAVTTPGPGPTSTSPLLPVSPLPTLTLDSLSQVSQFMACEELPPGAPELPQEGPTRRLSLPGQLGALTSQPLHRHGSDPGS
# hERG (KCNH2) = hERG (KCNH2) (Homo sapiens, UniProt Q12809); assay: as §3; conditions: human
# Chain of hERG (KCNH2) (Q12809 whole entry): as above
# [16] = Clearance in rat hepatocytes assessed per million cell; type: ADME, cell-based, Hepatocyte; conditions: read-out: CLH
# [17] = Mutagenicity in Salmonella typhimurium by Ames test; type: toxicity; conditions: salmonella enterica subsp. enterica serovar typhimurium
# Mus musculus [18] = species: Mus musculus; assay: as §2
# Mus musculus [19] = assay: In vivo modulation of gamma secretase in APP-Swedish transgenic mouse assessed as reduction in Abeta42 production by measuring remaining Abeta42 level at 10 mg/kg, po measured after 4 hrs by ELISA or AlphaLISA assay relative to control; type: functional
# [20] = Covalent protein binding in human liver microsomes assessed per mg protein in presence of NADPH; type: ADME, Microsome
# Mus musculus [21] = assay: In vivo modulation of gamma secretase in APP-Swedish transgenic mouse assessed as reduction in Abeta42 production by measuring remaining Abeta42 level at 30 mg/kg, po measured after 4 hrs by ELISA or AlphaLISA assay relative to control; type: functional
# Mus musculus [22] = assay: In vivo modulation of gamma secretase in APP-Swedish transgenic mouse assessed as reduction in Abeta42 production by measuring remaining Abeta42 level at 3 mg/kg, po measured after 4 hrs by ELISA or AlphaLISA assay relative to control; type: functional
# Mus musculus [23] = assay: In vivo modulation of gamma secretase in po dosed APP-Swedish transgenic mouse assessed as reduction in total Abeta42 production level in brain administered as single dose by ELISA or AlphaLISA assay; type: functional, organism-based
# [24] = Fraction unbound in 10% fetal calf serum; type: ADME, cell-free, Bos taurus; conditions: cattle
# [25] = Ratio of IC50 for dark toxicity in human Keratinocytes to IC50 for phototoxicity in human Keratinocytes in presence of UVA at 320 to 400 nm; type: cell-based, Keratinocyte; conditions: read-out: Ratio IC50
# Mus musculus [26] = assay: In vivo modulation of gamma secretase in APP-Swedish transgenic mouse assessed as reduction in Abeta42 production by measuring remaining Abeta42 level at 1 mg/kg, po measured after 4 hrs by ELISA or AlphaLISA assay relative to control; type: functional
# [27] = Ratio of IC50 for dark toxicity in human Melanocytes to IC50 for phototoxicity in human Melanocytes in presence of UVA at 320 to 400 nm; type: cell-based, Melanocyte; conditions: read-out: Ratio IC50
SMILES,IC50 (Gamma-secretase) [nM],solubility [1] [µg/mL],logD [2],Kd [3] [nM],fraction unbound [4],hepatocyte CLint [5] [µL/min/1e6 cells],fraction unbound [6],IC50 [7],hepatocyte CLint [8] [µL/min/1e6 cells],other results
Cc1nnc(N2C[C@H]3CC[C@@H](C2)[C@@H]3Nc2nc3c(OC(C)C(F)(F)F)cccn3n2)o1 (stereo partly drawn),108,346,2.68,–,–,–,–,–,–,–
FC(F)(F)COc1cccn2nc(N[C@@H]3[C@@H]4CC[C@H]3CN(c3ccnc(C(F)(F)F)c3)C4)nc12,24,11,4.04,250,0.012,1,0.02,21 nM,9,–
Cc1nnc(N2C[C@H]3CC[C@@H](C2)[C@@H]3Nc2nc3c(OC(C)C(F)(F)F)ccc(C(F)(F)F)n3n2)o1 (stereo partly drawn),27,77,3.58,> 40000,0.028,1,0.044,20 nM,1.6,–
Cc1nsc(N2C[C@H]3CC[C@@H](C2)[C@@H]3Nc2nc3c(OCCC(F)(F)F)cccn3n2)n1,14,1.7,3.36,–,0.03,1.3,0.0521,–,21,–
Cc1nsc(N2C[C@H]3CC[C@@H](C2)[C@@H]3Nc2nc3c(OCC4COC4)cccn3n2)n1,49,456,2.26,–,–,–,–,–,–,–
Cc1noc(N2C[C@H]3CC[C@@H](C2)[C@@H]3Nc2nc3c(OCC(F)(F)F)ccc(C(F)(F)F)n3n2)n1,33,55,3.79,> 40000,0.017,1,0.031,20 nM and 12 nM,8.5,fraction unbound [9]: 0.046; Therm solubility [10]: 5 µg/mL; fIC50 [11]: 21 nM; IC50 (Melanocyte): 33000 nM; solubility [12]: 12 µg/mL; IC50 (Keratinocyte): 33000 nM; Activity [13]: Non-Toxic; solubility [14]: 92 µg/mL; IC50 [15]: 8750 nM; IC20 (hERG (KCNH2)): 3500 nM; hepatocyte CLint [16]: 6.9 µL/min/1e6 cells; Activity [17]: Non-Toxic
Cc1cc(N2C[C@H]3CC[C@@H](C2)[C@@H]3Nc2nc3c(O[C@@H](C)C(F)(F)F)cccn3n2)sn1,6,6.3,3.81,85,0.01,3.1,0.034,–,36,–
Cc1noc(N2C[C@H]3CC[C@@H](C2)[C@@H]3Nc2nc3c(OCC(F)(F)C(F)(F)F)cccn3n2)n1,20,144,3.57,–,0.055,1,0.061,17 nM,11,–
Cc1nsc(N2C[C@H]3CC[C@@H](C2)[C@@H]3Nc2nc3c(OCCCC(F)(F)F)cccn3n2)n1,14,0.2 to 1,3.76 to 3.9,–,–,–,–,–,–,–
Cc1nsc(N2C[C@H]3CC[C@@H](C2)[C@@H]3Nc2nc3c(OC(F)(F)F)cccn3n2)n1,61,102,3.3,–,–,–,–,–,–,–
Cc1cc(N2C[C@H]3CC[C@@H](C2)[C@@H]3Nc2nc3c(OCC(F)F)ccc(C(F)(F)F)n3n2)ncn1,21,88,3.9,23000,0.028,2.3,0.017,11 nM,9.4,fraction unbound [9]: 0.01; Therm solubility [10]: 3 µg/mL; fIC50 [11]: 12 nM; IC50 (Melanocyte): 31000 nM; solubility [12]: 13 µg/mL; IC50 (Keratinocyte): 31000 nM; Activity [13]: Non-Toxic; solubility [14]: 466 µg/mL; IC50 [15]: 4500 nM; IC20 (hERG (KCNH2)): 1400 nM; fIC50 (Mus musculus [18]): 7 nM; hepatocyte CLint [16]: 5.8 µL/min/1e6 cells; Activity [17]: Non-Toxic
Cc1nsc(N2C[C@H]3CC[C@@H](C2)[C@@H]3Nc2nc3c(O[C@@H](C)C(F)(F)F)cccn3n2)n1,16,78,3.69,–,0.028,3.1,0.06,–,10,–
O=S(=O)(N[C@H]1CC[C@@](c2cc(F)ccc2F)(S(=O)(=O)c2ccc(Cl)cc2)CC1)C(F)(F)F,–,–,–,–,–,–,–,–,–,remaining Abeta42 level (% of control) (Mus musculus [19]): 24 - 28%
COc1cccn2nc(N[C@@H]3[C@@H]4CC[C@H]3CN(c3nc(C)ns3)C4)nc12,231,396,2.59,–,0.12,10,0.16,–,27,–
Cc1noc(N2C[C@H]3CC[C@@H](C2)[C@@H]3Nc2nc3c(OCC(F)(F)F)cccn3n2)n1,114,55 to 265,1.79,–,–,–,0.095,> 400 nM,4.6,–
Cc1cc(N2C[C@H]3CC[C@@H](C2)[C@@H]3Nc2nc3c(OCC(F)(F)F)ccc(C(F)(F)F)n3n2)sn1,2,0.6,4.1,40000 to 100000,0.002,2,–,2 nM,19,–
Cc1nsc(N2CC[C@@H](Nc3nc4c(-c5ccc(F)c(F)c5F)cccn4n3)C(F)(F)C2)n1,55,–,–,–,0.0003,–,0.0029,38 nM,–,PB [20]: 149 pmol; fIC50 [11]: 3.3 nM; Activity (Mus musculus [21]): 31%; remaining Abeta42 level (% of control) (Mus musculus [22]): 64%; remaining Abeta42 level (% of control) (Mus musculus [19]): 46%; fIC50 (Mus musculus [23]): 8 nM; IC50 (Mus musculus [23]; Mus musculus): 2870 nM; fIC50 (Mus musculus [18]): 2.3 nM; fraction unbound [24]: 0.06
Cc1cc(N2C[C@H]3CC[C@@H](C2)[C@@H]3Nc2nc3c(OCC(F)(F)C(F)(F)F)cccn3n2)on1,7,11,4.1,–,0.02,4,0.032,3 nM,34,–
Cc1cc(N2C[C@H]3CC[C@@H](C2)[C@@H]3Nc2nc3c(OCC(F)(F)F)cccn3n2)sn1,4,31,3.9 to 3.99,120,0.017,3.3,0.018,4 nM,15,PB [20]: 96 pmol; selectivity ratio [25]: 1; fIC50 [11]: 3 nM; Activity (Mus musculus [26]): 75%; IC50 (Melanocyte): > 137000 nM; remaining Abeta42 level (% of control) (Mus musculus [22]): >=47 - 50%; remaining Abeta42 level (% of control) (Mus musculus [19]): >50%; IC50 (Keratinocyte): > 137000 nM; IC50 [15]: 2900 nM; IC20 (hERG (KCNH2)): 900 nM; fIC50 (Mus musculus [18]): 3 nM; selectivity ratio [27]: 1
Cc1nsc(N2C[C@H]3CC[C@@H](C2)[C@@H]3Nc2nc3c(OCC(F)(F)F)cccn3n2)n1,21,198,3.17,150,0.028,1.3,0.06 to 0.101,9 nM,4 to 6.4,PB [20]: 30 pmol; selectivity ratio [25]: 1.1; fIC50 [11]: 12 nM; Activity (Mus musculus [26]): 59%; IC50 (Melanocyte): 443000 nM; remaining Abeta42 level (% of control) (Mus musculus [22]): 33%; remaining Abeta42 level (% of control) (Mus musculus [19]): 15%; IC50 (Keratinocyte): 443000 nM; IC50 [15]: > 10000 nM; IC20 (hERG (KCNH2)): 4500 nM; fIC50 (Mus musculus [18]): 5 nM; selectivity ratio [27]: 1.1
